Article PMC11943016, “TBG096 Ameliorates Memory Deficiency in AD Mouse Model via Promoting Neurogenesis and Regulation of Hsc70/HK2/PKM2/LAMP2A Signaling Pathway” (International Journal of Molecular Sciences, 2025)
Where two headings read alike, the source gives them in different places.

Assays:
[1] = system: Hsc70, LAMP2A, APP, PKM2, and HK2 proteins; assay: Western blot of CMA proteins in PC12 cells (inhibitor experiment); assay type: cell-based; conditions: TBG096 1 µM, 4 h, vs control
Method: (§1) In the inhibitor experiment of NGF-mimic activity, approximately 5 × 10^4 PC12 cells were seeded into each well of a 24-well plate and incubated for 24 h. After that, the medium in each well was replaced with 500 μL of serum-free DMEM or the serum-free DMEM containing VER155008, the inhibitor of Hsc70 protein, incubated in a CO2 incubator for 30 min. Subsequently, 500 μL of serum-free DMEM containing different samples was added and cultured, respectively. The PC12 cells with neurite outgrowth were recorded after 48 h. For the Western blot analysis, the experiment included five groups, namely the control (C) group, the NGF (40 ng/mL) group, the TBG096 (1 µM) group, the VER155008 (3 µM) group, and the VER155008 (3 µM) + TBG096 (1 µM) group. Afterwards, approximately 2 × 10^6 cells per dish were seeded into ten 6 cm Petri dishes with 5 mL of DMEM medium and incubated for 24 h. After giving different treatments with samples, the cells continued to culture for 4 h. Protein extraction was conducted to prepare for the subsequent Western blot analysis.
Approximately 50 mg of cerebral cortex from brain tissues was homogenized in RIPA lysis buffer containing 1% protease inhibitor and 1% phosphatase inhibitor. Then, the sample was centrifuged at 12,000 rpm at 4 °C for 10 min, and the supernatant was transferred to a new tube. Protein concentrations were determined using the BCA kit, and 30 µg of protein from each sample was denatured by heating in water at 100 °C for 10 min. Subsequently, approximately 30 µg of protein from each sample was loaded into each well. After conducting gel electrophoresis at 80 V for 15 min and then at 120 V for 60 min, the proteins were transferred to the polyvinylidene fluoride (PVDF) membrane for 90 min. Then, the PVDF membrane was blocked with 5% skimmed milk at room temperature for 60 min. The membrane was incubated with a diluted primary antibody at 4 °C overnight. After washing the membrane three times with TBST buffer (1× TBS buffer containing 0.05% (v/v) tween 20), it was incubated with the secondary antibody for 1 h at room temperature. Finally, the strip was developed using chemiluminescence ECL reagent, and the blot density was quantified with ImageJ (National Institutes of Health, Bethesda, MD, USA).

[2] = Pharmacokinetic analysis of plasma in SD rats; assay type: in vivo; conditions: female, Sprague-Dawley, rat; for half-life: 14 mg/kg
Method: (§2) In the pharmacokinetic analysis, a total of 23 female SD rats aged 8 weeks from Zhejiang Academy of Medical Sciences (Hangzhou, China) (permit number: ZJU20240191) were used. A total of 15 rats were randomly divided into the following groups: (i) control group, (ii) TBG096 (14 mg/kg) oral administration group, and (iii) TBG096 (14 mg/kg) intravenous administration group. TBG096 was administered orally (dissolved in soybean oil) or intravenously (dissolved in Milli-Q water containing 2% Tween 80 and 5% ethanol) at 14 mg/kg after 12 h of fasting. Then, the blood from the posterior ocular venous plexus of rats was taken at 5, 15, 30, 60, 90, 120, 180, and 240 min after administration. A total of eight rats were randomly divided into two groups for taking brain samples: (i) control group and (ii) TBG096 (14 mg/kg) oral administration group.
The collected blood was placed in a centrifuge tube (containing 20 µL heparin sodium solution) and centrifuged at 3000 rpm for 10 min to obtain a supernatant (plasma). Brain samples were collected after the oral administration of 14 mg/kg TBG096 and heart perfusion with PBS. Then, 10 µL of 10% formic acid and 10 µL of internal standard (10 ng/µL) were added to 200 µL of plasma (compound 2 was used as internal standard) or 0.2 g of brain sample (compound 4 was used as internal standard) and vortexed for 10 s and then left at −80 °C overnight. Next, 600 µL or 3 mL of extraction solvent (isopropanol) was added to plasma or brain samples, vortexed for 5 min, left at −30 °C for 2 h, and then centrifuged at 12,000 rpm for 15 min. Next, the upper organic phase was transferred to another tube, centrifuged, and concentrated to dryness. The residue was dissolved in 100 µL of mobile phase, vortexed for 0.5 min, and centrifuged at 12,000 rpm for 3 min, and the supernatant was then prepared for HPLC analysis (Supersil Phenyl 5 µm (4.6 × 200 mm), elution with MeCN/H2O containing 0.1% formic acid (plasma samples: 57% MeCN/H2O, brain samples: 56% MeCN/H2O) for 30 min, flow rate: 1 mL/min, sample size: 20 µL, detected at 284 nm) and HR ESI-TOF-MS analysis.

[3] = Brain concentration after oral administration in rats (BBB passage); assay type: in vivo
Method: as §2, with “A total of eight rats were randomly divided into two groups for taking brain samples: (i) control group and (ii) TBG096 (14 mg/kg) oral administration group.” left out
The collected blood was placed in a centrifuge tube (containing 20 µL heparin sodium solution) and centrifuged at 3000 rpm for 10 min to obtain a supernatant (plasma). […] The residue was dissolved in 100 µL of mobile phase, vortexed for 0.5 min, and centrifuged at 12,000 rpm for 3 min, and the supernatant was then prepared for HPLC analysis (Supersil Phenyl 5 µm (4.6 × 200 mm), elution with MeCN/H2O containing 0.1% formic acid (plasma samples: 57% MeCN/H2O, brain samples: 56% MeCN/H2O) for 30 min, flow rate: 1 mL/min, sample size: 20 µL, detected at 284 nm) and HR ESI-TOF-MS analysis.

[4] = system: PC12 cells; assay: NGF-mimic activity: neurite outgrowth in PC12 cells; assay type: cell-based; conditions: 48 h
Method: The neurogenic activity of samples was evaluated according to the methods described in our previous study. Briefly, approximately 5 × 10^4 cells were seeded in each well of a 24-well microplate and were cultured under a humidified atmosphere with 5% CO2 at 37 °C for 24 h. Then, the medium in each well was replaced with 1 mL of serum-free DMEM containing 40 ng/mL NGF as a positive control, 0.5% DMSO as a negative control, and the test sample after 24 h, respectively. About 100–200 cells of each well were counted from a randomly selected area and repeated thrice after 48 h. A cell-bearing neurite outgrowth longer than the diameter of the cell body was identified as a positive cell. The activity was presented as the percentage of positive cells in the selected area.
as §1

O=C(SCCCCCCSCCCC(F)(F)F)c1cccc(O)c1O [TBG096]
HK2 protein expression [1]: significantly decreased | APP protein expression ([1]; VER155008 3 µM): significantly decreased | Hsc70 protein level ([1]; VER155008 3 µM): significantly increased | LAMP2A protein level ([1]; VER155008 3 µM): significantly increased | PKM2 protein expression ([1]; VER155008 3 µM): significantly decreased | bioavailability ([2]; 14 mg/kg oral vs i.v., rats, read-out: absolute (oral) bioavailability): 36% | half-life ([2]; iv, i.v. 14 mg/kg, rats, read-out: T1/2z): 44.4 min | AUC(0-inf) ([2]; iv, i.v. 14 mg/kg, rats): 2520 ng·h/mL | AUC(0-t) ([2]; iv, i.v. 14 mg/kg, rats): 2470 ng·h/mL | Cmax ([2]; iv, i.v. 14 mg/kg, rats): 4700 ng/mL | Tmax ([2]; iv, i.v. 14 mg/kg, rats): 5 min | AUC(0-inf) ([2]; oral (i.g.) 14 mg/kg, rats): 905 ng·h/mL | AUC(0-t) ([2]; oral (i.g.) 14 mg/kg, rats): 707 ng·h/mL | Cmax ([2]; oral (i.g.) 14 mg/kg, rats): 700 ng/mL | Tmax ([2]; oral (i.g.) 14 mg/kg, rats): 15 min | half-life ([2]; po, oral (i.g.) 14 mg/kg, rats, read-out: T1/2z (oral elimination half-life)): 111 min | half-life ([2]; po, oral, as restated in Discussion, read-out: half-life (converted)): 111 min | ability to cross the BBB ([3]; brain samples 15 min after oral 14 mg/kg, HPLC and HR ESI-TOF-MS): has the ability to cross the BBB | concentration at 15 min ([3]; female, Sprague-Dawley, rat, brain, 15 min after single oral dose 14 mg/kg, rats): 81.7 ± 6.81 ng/g | percentage of PC12 cells exhibiting neurite growth ([4]; 0.3, 1, and 3 µM, listed as 3): superior activity | NGF-mimic effect after treatment with VER155008 (Hsc70 inhibitor) ([4]; PC12 cells): significantly diminished
